The source made the active and inactive calls. Numbered stars: 1 amine (or outer) side, 2 acyl side, 3 side chain; on linkers, the order of the positions; unused ones are H or OH. Square brackets hold non-standard residues; d marks the D form. Peptide text beside a SMILES is read from it. * marks the point of attachment. Nva(5-(4-Bn-piperidin-1-yl)) = N[C@@H](CCCN1CCC(Cc2ccccc2)CC1)C(=O)O; X2 = O=C1[C@@H](N[*:1])Cc2ccccc2CN1CCCC(=O)[*:2]; X1 = O=C1[C@@H](N[*:1])Cc2ccccc2CN1CCC(=O)[*:2]; Dmt = Cc1cc(O)cc(C)c1C[C@H](N)C(=O)O; Nicotinoyl = O=C(c1cccnc1)*; dOrn = NCCC[C@@H](N)C(=O)O; dNMeA = CN[C@H](C)C(=O)O
Experiments:
[1] = tested on: Mus musculus; assay: Antinociceptive activity in mouse at 10 mg/kg, sc administered daily and measured on day 8; assay type: functional, organism-based
[2] = tested on: Mus musculus; assay: Antinociceptive activity in mouse assessed as basal nociceptive threshold at 10 mg/kg, sc administered daily and measured on day 2 to 7; assay type: functional, organism-based
[3] = Induction of naltrexone-precipitated withdrawal syndrome in sc dosed C57BL/6N mouse assessed as somatic signs administered for 8 days followed by naltrexone addition on day 9 after 2 hrs post last dose and measured after 30 mins; assay type: toxicity, organism-based; conditions: in vivo, 216.5 h, time 12990 min
[4] = Induction of naltrexone-precipitated withdrawal syndrome in sc dosed C57BL/6N mouse assessed as vegetative signs administered for 8 days followed by naltrexone addition on day 9 after 2 hrs post last dose and measured after 30 mins; assay type: toxicity, organism-based; conditions: in vivo, 216.5 h, time 12990 min
[5] = Toxicity in sc dosed C57BL/6N mouse assessed as induction of respiratory depression by measuring decrease in pulmonary rate by plethysmography; assay type: organism-based; conditions: in vivo
[6] = target: T1, Mu-type opioid receptor (Homo sapiens, UniProt P35372); assay: Agonist activity at human MOP expressed in HEK293 cells coexpressing GloSensor-20F assessed as inhibition of forskolin-induced cAMP accumulation relative to control; assay type: functional, cell-based; conditions: filed as agonist
T1 sequence (P35372 whole entry): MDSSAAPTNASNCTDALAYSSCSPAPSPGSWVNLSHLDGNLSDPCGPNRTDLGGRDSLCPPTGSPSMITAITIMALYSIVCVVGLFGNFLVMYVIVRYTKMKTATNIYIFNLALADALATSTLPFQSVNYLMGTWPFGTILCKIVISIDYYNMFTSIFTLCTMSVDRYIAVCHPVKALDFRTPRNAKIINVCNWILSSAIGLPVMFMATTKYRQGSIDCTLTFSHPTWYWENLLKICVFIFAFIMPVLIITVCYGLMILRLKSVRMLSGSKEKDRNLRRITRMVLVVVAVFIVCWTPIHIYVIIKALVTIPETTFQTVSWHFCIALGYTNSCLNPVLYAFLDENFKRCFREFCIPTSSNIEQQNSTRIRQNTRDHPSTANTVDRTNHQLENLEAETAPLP

[7] = target: T1, Mu-type opioid receptor; assay: Agonist activity at human Rluc8-tagged MOP expressed in HEK293 cells coexpressing eYFP-tagged beta-arrestin-2 assessed as beta-arrestin-2 recruitment incubated for 5 mins by luminometer analysis relative to control; assay type: functional, cell-based
[8] = target: T2, Neuropeptide FF receptor 1 (Homo sapiens, UniProt Q9GZQ6); assay: Displacement of [125I]-1DMeNPFF from human NPFFR1 expressed in CHO cell membrane at 0.5 uM incubated for 1 hr by Topcount counting method relative to control; assay type: cell membranes
T2 sequence (Q9GZQ6 whole entry): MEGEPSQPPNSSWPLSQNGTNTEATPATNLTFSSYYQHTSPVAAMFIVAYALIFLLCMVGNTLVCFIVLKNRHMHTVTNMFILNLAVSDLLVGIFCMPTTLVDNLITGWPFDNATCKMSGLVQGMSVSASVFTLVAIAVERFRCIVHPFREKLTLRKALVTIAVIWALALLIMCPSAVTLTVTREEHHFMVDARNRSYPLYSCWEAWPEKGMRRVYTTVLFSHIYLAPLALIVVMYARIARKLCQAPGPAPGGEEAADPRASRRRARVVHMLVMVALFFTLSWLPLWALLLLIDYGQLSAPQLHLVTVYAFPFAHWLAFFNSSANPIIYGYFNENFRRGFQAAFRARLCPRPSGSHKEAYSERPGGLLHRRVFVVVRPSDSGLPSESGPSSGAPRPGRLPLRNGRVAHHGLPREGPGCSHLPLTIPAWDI

[9] = target: T2, Neuropeptide FF receptor 1; assay: Antagonist activity at human NPFFR1 expressed in CHO cell membrane assessed as inhibition of NPVF induced cAMP response at 5 uM incubated for 1 hr by Topcount counting method relative to control; assay type: functional, cell membranes; parameters: scale not given: the % may be the effect or the level left
[10] = target: T3, Neuropeptide FF receptor 2 (Homo sapiens, UniProt Q9Y5X5); assay: Displacement of [125I]-1DMeNPFF from human NPFFR2 expressed in CHO cell membrane at 0.05 uM incubated for 1 hr by Topcount counting method relative to control; assay type: cell membranes; conditions: filed as antagonist
T3 sequence (Q9Y5X5 whole entry): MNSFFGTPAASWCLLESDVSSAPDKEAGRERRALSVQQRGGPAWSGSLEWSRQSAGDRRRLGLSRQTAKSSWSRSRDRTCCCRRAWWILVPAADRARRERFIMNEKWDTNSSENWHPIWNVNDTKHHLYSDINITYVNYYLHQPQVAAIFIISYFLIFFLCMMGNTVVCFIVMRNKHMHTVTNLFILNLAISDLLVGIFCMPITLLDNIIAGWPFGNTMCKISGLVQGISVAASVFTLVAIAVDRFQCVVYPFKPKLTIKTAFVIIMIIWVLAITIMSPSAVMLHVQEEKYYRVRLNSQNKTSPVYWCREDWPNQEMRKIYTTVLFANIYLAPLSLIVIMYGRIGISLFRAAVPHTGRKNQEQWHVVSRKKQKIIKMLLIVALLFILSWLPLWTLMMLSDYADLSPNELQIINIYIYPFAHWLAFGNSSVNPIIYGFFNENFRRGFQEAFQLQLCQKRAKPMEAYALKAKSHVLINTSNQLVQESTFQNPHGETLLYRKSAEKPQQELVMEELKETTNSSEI

[11] = target: T3, Neuropeptide FF receptor 2; assay: Antagonist activity at human NPFFR2 expressed in CHO cell membrane assessed as inhibition of NPVF induced cAMP response at 5 uM incubated for 1 hr by Topcount counting method relative to control; assay type: functional, cell membranes; parameters: scale not given: the % may be the effect or the level left
[12] = target: T1, Mu-type opioid receptor; assay: Agonist activity at human MOP expressed in HEK293 cells coexpressing GloSensor-20F assessed as inhibition of forskolin-induced cAMP accumulation; assay type: functional, cell-based
[13] = target: T1, Mu-type opioid receptor; assay: Agonist activity at human Rluc8-tagged MOP expressed in HEK293 cells coexpressing eYFP-tagged beta-arrestin-2 assessed as beta-arrestin-2 recruitment incubated for 5 mins by luminometer analysis; assay type: functional, cell-based
[14] = target: Kappa-type opioid receptor (Homo sapiens, UniProt P41145); assay: Antagonist activity at human KOR expressed in HEK293 cells assessed as forskolin-induced cAMP accumulation in presence of IBMX; assay type: functional, cell-based; conditions: filed as antagonist
Chain of Kappa-type opioid receptor (P41145 whole entry): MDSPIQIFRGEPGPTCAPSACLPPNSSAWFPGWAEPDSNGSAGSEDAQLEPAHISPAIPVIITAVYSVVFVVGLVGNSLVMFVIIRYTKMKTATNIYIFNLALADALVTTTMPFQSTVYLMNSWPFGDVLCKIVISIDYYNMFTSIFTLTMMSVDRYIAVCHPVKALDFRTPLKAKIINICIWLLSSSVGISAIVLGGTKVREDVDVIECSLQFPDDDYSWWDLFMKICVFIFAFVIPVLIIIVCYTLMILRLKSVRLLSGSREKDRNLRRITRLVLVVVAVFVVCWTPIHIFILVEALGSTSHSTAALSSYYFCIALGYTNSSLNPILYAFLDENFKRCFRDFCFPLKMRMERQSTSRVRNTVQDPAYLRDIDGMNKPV

[15] = target: Nociceptin receptor (Homo sapiens) (UniProt P41146); assay: Antagonist activity at human NOR expressed in HEK293 cells assessed as forskolin-induced cAMP accumulation in presence of IBMX; assay type: functional, cell-based; conditions: filed as antagonist
Chain of Nociceptin receptor (Homo sapiens) (P41146 whole entry): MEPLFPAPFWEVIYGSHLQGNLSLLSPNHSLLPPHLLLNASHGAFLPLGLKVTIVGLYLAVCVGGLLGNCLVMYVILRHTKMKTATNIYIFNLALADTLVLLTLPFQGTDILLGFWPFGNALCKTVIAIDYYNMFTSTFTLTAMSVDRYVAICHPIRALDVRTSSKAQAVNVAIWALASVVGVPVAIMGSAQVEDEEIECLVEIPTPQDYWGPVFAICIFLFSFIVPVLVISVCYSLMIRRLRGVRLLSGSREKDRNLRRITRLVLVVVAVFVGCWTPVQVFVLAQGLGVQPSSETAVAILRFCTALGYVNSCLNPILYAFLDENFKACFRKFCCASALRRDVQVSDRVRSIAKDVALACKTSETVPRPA

[16] = Cmax in mouse at 10 mg/kg, sc measured upto 24 hrs by LC-MS/MS analysis; assay type: ADME, organism-based; conditions: in vivo
[17] = Tmax in mouse at 10 mg/kg, sc measured upto 24 hrs by LC-MS/MS analysis; assay type: ADME, organism-based; conditions: in vivo
[18] = Half life in mouse at 10 mg/kg, sc measured upto 24 hrs by LC-MS/MS analysis; assay type: ADME, organism-based; conditions: in vivo
[19] = Drug concentration in mouse plasma at 10 mg/kg, sc measured after 2 hrs by LC-MS/MS analysis; assay type: ADME, organism-based
[20] = tested on: Mus musculus; assay: Antinociceptive activity in mouse at 4.2 umol/kg, sc administered chronically and measured on day 1; assay type: functional, organism-based; conditions: dose 4.2 µmol/kg
[21] = tested on: Mus musculus; assay: Antinociceptive activity in mouse at 4.2 umol/kg, sc administered chronically and measured on day 8; assay type: functional, organism-based; conditions: dose 4.2 µmol/kg
[22] = tested on: Mus musculus; assay: Antinociceptive activity in mouse at 4.2 umol/kg, sc administered daily and measured on day 1 and 8; assay type: functional, organism-based; conditions: dose 4.2 µmol/kg
[23] = Induction of naltrexone-precipitated withdrawal syndrome in sc dosed C57BL/6N mouse assessed as paw tremor administered for 8 days followed by naltrexone addition on day 9 after 2 hrs post last dose and measured after 30 mins; assay type: toxicity, organism-based; conditions: in vivo, 216.5 h, time 12990 min
[24] = Induction of naltrexone-precipitated withdrawal syndrome in sc dosed C57BL/6N mouse assessed as wet dog shake counts administered for 8 days followed by naltrexone addition on day 9 after 2 hrs post last dose and measured after 30 mins; assay type: toxicity, organism-based; conditions: in vivo, 216.5 h, time 12990 min

Structure (SMILES) | Emax [6] | Emax [7] | Activity ([8]; filed as antagonist) | Activity ([9]; filed as antagonist) | Activity [10] | Activity ([11]; filed as antagonist) | EC50 [12] | Activity [9] | EC50 ([13]; read-out: EC50) | further results
COc1ccsc1CNCC[C@@]1(c2ccccn2)CCOC2(CCCC2)C1 [OLICERIDINE] | – | – | – | – | – | – | – | – | – | Activity [1]: inactive; Activity [2]: inactive; Activity [3]: Toxic; Activity [4]: Toxic; Activity [5]: Dose-Dependent Effect
Cc1cc(O)cc(C)c1C[C@H](N)C(=O)N[C@H](CCCNC(=N)N)C(=O)N[C@H]1Cc2c(ccc3ccccc23)CN(CC(=O)N[C@@H](CCCN2CCC(Cc3ccccc3)CC2)C(=O)N[C@H](C(N)=O)C(C)C)C1=O | 102% | 22% | 87% | 51% | 77% | 77% | – | – | – | –
Cc1cc(O)cc(C)c1C[C@H](N)C(=O)N(C)[C@H](C)C(=O)N[C@H]1Cc2ccccc2CN(CCCC(=O)N[C@@H](CCCN2CCC(Cc3ccccc3)CC2)C(=O)N[C@@H](Cc2ccccc2)C(N)=O)C1=O (H-[Dmt][dNMeA][X2][Nva(5-(4-Bn-piperidin-1-yl))]F-NH2) | 66% | – | 57% | – | 65% | 49% | 10.6 nM | 12% | – | EC50 ([13]; hek293): Not Active
Cc1cc(O)cc(C)c1C[C@H](N)C(=O)N[C@H](CCCNC(=N)N)C(=O)N[C@H]1Cc2ccccc2CN(CCC(=O)N[C@@H](CCCN2CCC(Cc3ccccc3)CC2)C(=O)N[C@@H](Cc2ccccc2)C(N)=O)C1=O | 91% | – | 80% | 62% | 83% | 54% | 9.3 nM | – | 125 nM | Emax ([7]; filed as agonist): 42%; Activity [14]: Active; Activity [15]: Active; Cmax [16]: 984 nM; Tmax [17]: 2.67 h; half-life [18]: 3.08 h; concentration at 2 h [19]: 937 nM; Activity [20]: Active; Activity [21]: inactive; Activity [22]: Active; Activity [23]: Non-Toxic; Activity [24]: Non-Toxic
Cc1cc(O)cc(C)c1C[C@H](N)C(=O)N[C@H](CCCNC(=N)N)C(=O)N[C@H]1Cc2c(ccc3ccccc23)CN(CC(=O)N[C@@H](CCCN2CCC(Cc3ccccc3)CC2)C(=O)N[C@@H](Cc2ccccc2)C(N)=O)C1=O | 90% | 22% | – | – | 96% | 91% | – | 22% | – | Activity [8]: 35%
Cc1cc(O)cc(C)c1C[C@H](N)C(=O)N[C@H](CCCN)C(=O)N[C@H]1Cc2ccccc2CN(CCC(=O)N[C@@H](CCCN2CCC(Cc3ccccc3)CC2)C(=O)N[C@@H](Cc2ccccc2)C(N)=O)C1=O (H-[Dmt][dOrn][X1][Nva(5-(4-Bn-piperidin-1-yl))]F-NH2) | 78% | 20% | 45% | – | 55% | – | 34 nM | 22% | 2350 nM | Activity [11]: 37%
Cc1cc(O)cc(C)c1C[C@H](N)C(=O)N[C@H](CCCNC(=N)N)C(=O)N[C@H]1Cc2c(ccc3ccccc23)CN(CC(=O)N[C@@H](CCCN2CCC(Cc3ccccc3)CC2)C(=O)N[C@@H](Cc2c[nH]c3ccccc23)C(N)=O)C1=O | 65% | – | 68% | 62% | 84% | 83% | 10.5 nM | – | – | EC50 ([13]; hek293): Not Active
Cc1cc(O)cc(C)c1C[C@H](N)C(=O)N[C@H](CCCCNC(=O)c1cccnc1)C(=O)N[C@H]1Cc2ccccc2CN(CCC(=O)N[C@@H](CCCN2CCC(Cc3ccccc3)CC2)C(=O)N[C@@H](Cc2ccccc2)C(N)=O)C1=O (H-[Dmt][dK](Nicotinoyl)[X1][Nva(5-(4-Bn-piperidin-1-yl))]F-NH2) | 92% | 16% | 74% | – | 70% | 59% | – | 33% | 12 nM | –
Cc1cc(O)cc(C)c1C[C@H](N)C(=O)N(C)[C@H](C)C(=O)N[C@H]1Cc2ccccc2CN(CCC(=O)N[C@@H](CCCN2CCC(Cc3ccccc3)CC2)C(=O)N[C@@H](Cc2ccccc2)C(N)=O)C1=O (H-[Dmt][dNMeA][X1][Nva(5-(4-Bn-piperidin-1-yl))]F-NH2) | 64% | 12% | 43% | 75% | 48% | 45% | – | – | – | –

Reference: ChEMBL document CHEMBL5506024, “Multitarget μ-Opioid Receptor Agonists─Neuropeptide FF Receptor Antagonists Induce Potent Antinociception with Reduced Adverse Side Effects” (J Med Chem, 2024)
